Experimental data reported in publication PMC3059644 (Frontiers in Psychiatry, 2010).
Like-named read-outs stand apart in the source and are kept apart here.

Tests used:
adenosine A1 receptors = biological target: adenosine A1 receptors; design: method as in Hutchison et al., 1989; details: ref Hutchison et al., 1989; cited from earlier work
adenosine A2A receptors = details: read-out: Ki for adenosine A2A receptors; ref Hutchison et al., 1989; cited from earlier work
[1] = system: adenosine A2A receptors versus A1 receptors; details: cited from earlier work
[2] = system: [3H]CGS21680 binding sites; design: method as in Cunha et al., 1996, 1997; details: ref Cunha et al., 1996, 1997, cited from earlier work
[3] = biological target: T1, typical adenosine A2A receptors (Rattus norvegicus, UniProt P30543); experiment: [3H]CGS21680 specific binding in rat hippocampus in the presence of DPCPX (typical sites); details: DPCPX used to isolate typical sites
[4] = biological target: atypical adenosine A2A receptors; experiment: Displacement of [3H]CGS21680 binding in rat striatum in the presence of CSC (atypical sites)
[5] = system: atypical adenosine A2A receptors; experiment: Displacement of [3H]CGS21680 binding in rat hippocampus in the presence of CSC (atypical sites)
Experimental: The collected tissues were homogenized in about 25 volumes of incubation buffer and centrifuged at 40,000 g for 10 min at 4°C. The pellet was resuspended in the same fresh buffer, homogenized, centrifuged once again and the final pellet stored at −80°C until use. […] Prior to the competition binding assay, the pellet was resuspended in appropriate buffer at the wanted protein concentration and membrane suspension incubated with 5 U/ml adenosine deaminase (ADA, Sigma-Aldrich) for 30 min at 37°C to remove endogenous adenosine. The protein concentration of membrane suspension was determined using the Bradford method (Pierce, Rockford, IL, USA) with bovine albumin as standard. Competition binding experiments with [^3H]CGS21680 were performed by incubating membranes (50–100 μg of protein/sample) with a single concentrations of [^3H]CGS21680 (30 nM) for 2 h at room temperature in a solution containing 50 mM Tris-HCl, pH 7.4, 10 mM MgCl2 and 5 U/ml ADA and various concentrations (ranging from 10^−5 to 10^−12 M) of test compounds. Non-specific binding was determined in the presence of an excess of cold 2-chloroadenosine (Sigma-Aldrich). The binding reactions were stopped by vacuum filtration through GF/B filters, followed by washing of the filters with ice-cold washing buffer (same composition as the binding buffer) and filter-bound radioactivity measured by scintillation spectrometry. Competition studies were performed with the various compounds alone or in the presence of an excess of either CSC or DPCPX (both from Sigma-Aldrich). The compounds were dissolved in 100% DMSO (Sigma-Aldrich) at a concentration of 10 mM and stored at −20°C. An intermediate 100 μM working solution was prepared in water and subsequent scalar working solutions in incubation buffer.

[6] = biological target: T2, total adenosine A2A receptors (Rattus norvegicus, UniProt P30543); experiment: Displacement of [3H]CGS21680 binding in rat striatal membranes, compounds alone (total)
[7] = biological target: T2, total adenosine A2A receptors; experiment: Displacement of [3H]CGS21680 binding in rat hippocampal membranes, compounds alone (total)
[8] = biological target: T1, typical adenosine A2A receptors; experiment: Displacement of [3H]CGS21680 binding in rat striatum in the presence of DPCPX (typical sites)
A1 and A2A receptors = details: transfected cells; ref Minetti et al., 2005; cited from earlier work
adenosine A2B receptor = details: cited from earlier work

T2 sequence (P30543 whole entry): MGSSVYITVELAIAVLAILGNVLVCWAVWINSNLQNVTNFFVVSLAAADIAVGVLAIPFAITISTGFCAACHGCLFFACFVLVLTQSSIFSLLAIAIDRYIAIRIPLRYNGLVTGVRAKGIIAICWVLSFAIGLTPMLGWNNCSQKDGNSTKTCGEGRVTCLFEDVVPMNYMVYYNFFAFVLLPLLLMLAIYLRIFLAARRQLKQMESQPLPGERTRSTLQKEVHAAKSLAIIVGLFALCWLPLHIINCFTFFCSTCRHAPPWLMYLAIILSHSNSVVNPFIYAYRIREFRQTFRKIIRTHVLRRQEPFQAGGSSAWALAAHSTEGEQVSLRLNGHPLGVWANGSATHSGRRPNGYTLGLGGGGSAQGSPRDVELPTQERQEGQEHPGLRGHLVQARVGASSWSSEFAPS
T1 sequence (P30543 whole entry): as above

CCNC(=O)[C@H]1O[C@@H](n2cnc3c(N)nc(NCCc4ccc(CCC(=O)O)cc4)nc32)[C@H](O)[C@@H]1O [CGS21680, 2-p-(2-carboxyethyl)phenethyl-amino-5’-N-ethylcarbox-amidoadenosine]
Ki (adenosine A1 receptors): ~3100 nM | Ki (adenosine A2A receptors): ~22 nM

Cn1c(=O)c2c(nc(C=Cc3cccc(Cl)c3)n2C)n(C)c1=O [CSC, 8-(3-chlorostyryl)-caffeine]
A2A/A1 selectivity ([1]; ref Jacobson et al., 1993): 520 fold | loss of potency in inhibiting [3H]CGS21680 binding in hippocampus and cortex versus striatal membranes [2]: 10 fold

CCCn1c(=O)c2[nH]c(C3CCCC3)nc2n(CCC)c1=O [DPCPX, 8-cyclopentyl-1,3-dipropylxanthine]
effect on [3H]CGS21680 specific binding in hippocampus [3]: completely abolished | concentrations displacing most of the [3H]CGS21680 binding in hippocampus and cortex ([2]; hippocampus and cortex, not striatum): low nanomolar concentrations

CCCn1c(=O)c2c(nc(/C=C/c3ccc(OC)c(OC)c3)n2C)n(CCC)c1=O [KF17837, (E)-8-(3,4-dimethoxystyryl)-1,3-dipropyl-7-methylxanthine]
A2A/A1 selectivity ([1]; ref Nonaka et al., 1994): 62 fold | loss of potency in inhibiting [3H]CGS21680 binding in hippocampus and cortex versus striatal membranes [2]: 10 fold

CCn1c(=O)c2c(nc(/C=C/c3ccc(OC)c(OC)c3)n2C)n(CC)c1=O [KW6002, (E)-1,3-diethyl-8-(3,4-dimethoxystyryl)-7-methyl-3,7-dihydro-1H-purine-2,6,dione, reference compound]
Ki [4]: 74.2 nM | decrease in affinity for atypical binding sites [4]: decreased from two to five fold | binding in hippocampus in the presence of CSC [5]: no binding

Nc1nc2c(cnn2CCc2ccccc2)c2nc(-c3ccco3)nn12 [SCH58261, reference compound]
IC50 [6]: 16.7 nM | Ki [6]: 4.8 nM | difference in affinity values between striatum and hippocampus [7]: about 200 fold

CCCCc1nc(N)c2nc(-n3nccn3)n(C)c2n1 [ST1535, 2 butyl-9-methyl-8-(2H-1,2,3-triazol 2-yl)-9H-purin-6-xylamine]
IC50 ([6]; Figure 1, rat striatum, 30 nmol/L [3H]CGS21680, (95% CI), read-out: IC50): 79.6 nM | Ki ([6]; rat striatal membranes, 30 nM [3H]CGS21680, mean (95% CI) of 3-4 experiments, read-out: Ki values (nM) in striatum, Total): 22.8 nM | Hill coefficient, total striatal receptors ([6]; striatum, total): 0.7 | Hill Slope ([8]; Figure 2, rat striatum, 100 nmol/L DPCPX): -1.007 | IC50 ([8]; Figure 2, rat striatum, 100 nmol/L DPCPX, (95% CI)): 118 nM | Ki ([8]; rat striatal membranes, in the presence of DPCPX, mean (95% CI)): 33.7 nM | Hill coefficient, typical striatal receptors ([8]; striatum, typical): around the unit | IC50 ([4]; Figure 3, rat striatum, 200 nmol/L CSC, (95% CI)): 256 nM | Ki ([4]; rat striatal membranes, in the presence of CSC, mean (95% CI)): 73 nM | decrease in affinity for atypical binding sites ([4]; striatum, atypical versus total and typical): decreased from two to five fold | Hill coefficients in the hippocampus ([7]; hippocampus): 0.6–0.8 | difference in affinity values between striatum and hippocampus ([7]; total A2A binding, hippocampus versus striatum): about 5 fold | ratio between A1 and A2A receptors (A1 and A2A receptors): about 10 fold | concentrations for A2B receptor higher than those for A2A receptors (adenosine A2B receptor; ref Stasi et al., 2006): about 3 fold | IC50 ([5]; Figure 5, rat hippocampus, 200 nmol/L CSC, (95% CI)): 446 nM | binding in hippocampus in the presence of CSC ([5]; hippocampus, in the presence of CSC): displaced some affinity | Ki ([5]; read-out: Ki values (nM) in hippocampus, Atypical, rat hippocampal membranes, in the presence of CSC, mean (95% CI)): 146 nM

Nc1nc(NCCc2ccc(O)cc2)nc2nc(-c3ccco3)nn12 [ZM241385, reference compound]
concentrations for A2B receptor higher than those for A2A receptors (adenosine A2B receptor; ref Linden et al., 1999): 22 fold
